The results in this text go back to patent US7829586B2, “Aryl-substituted nitrogen-containing heterocyclic compounds” (Banyu Pharmaceutical Co., Ltd., priority 2005, dated 2010).

Assay [1] concerns the target T1, nociceptin receptor ORL1 (Homo sapiens, UniProt P41146). Kind of assay: Nociceptin receptor binding inhibition assay ([125I]Tyr14-Nociceptin, CHO/ORL1 membrane fractions, SPA). More on the design: expressed in transfected cells; membrane fractions. Conditions: CHO/ORL1 membrane fraction, 50 pM [125I]Tyr14-Nociceptin, 37° C., 60 minutes. As for the experimental part:
Nociceptin Receptor Binding Inhibition Assay
A cDNA that codes for a human nociceptin receptor gene was cloned into an expression vector pCR3 (by Invitrogen) to prepare pCR3/ORL1. Next, pCR3/ORL1 was transfected in CHO cells using a transfectam (by Nippongene) to obtain a stable expression strain (CHO/ORL1 cells) having resistance against 1 mg/ml G418. Membrane fractions were prepared from this stable expression strain to carry out a receptor binding assay. 11 μg of the membrane fraction, 50 pM [^125I]Tyr^14-Nociceptin (by Amersham Pharmacia), 1 mg of wheatgerm agglutinin SPA beads (PVT based, by Amersham Pharmacia) and each test compound were suspended in an NC buffer (50 mM Hepes, 10 mM sodium chloride, 1 mM magnesium chloride, 2.5 mM calcium chloride, 0.1% BSA, 0.025% bacitracin, pH 7.4) and incubated at 37° C. for 60 minutes, and then the radioactivity of the culture was determined. The binding activity to the nociceptin receptor was indicated by the 50% inhibition concentration (IC50 value) of [^125I]Tyr^14-Nociceptin binding by each test compound.

Assay [2] concerns the target T1, nociceptin receptor ORL1. Kind of assay: Antagonism against nociceptin-elicited G protein activation (GTPγ[35S] binding, CHO/ORL1 membranes). Format: biochemical. More on the design: expressed in transfected cells; membrane preparation. Particulars: CHO/ORL1 membrane, 50 nM nociceptin, 200 pM GTPγ[35S], 25° C., 150 minutes. As for the experimental part: Antagonism Against Nociceptin-Elicited G Protein Activation
CHO cells which stably expressed a nociceptin receptor ORL1 were used to investigate the action of each test compound against nociceptin-elicited G protein activation. A membrane prepared from the CHO/ORL1 cells, 50 nM nociceptin, 200 pM GTPγ[^35S] (by NEN), 1.5 mg of wheatgerm agglutinin SPA beads (by Amersham Pharmacia) and each test compound were mixed in a GDP buffer (20 mM Hepes, 100 mM sodium chloride, 10 mM magnesium chloride, 1 mM EDTA, 5 μM GDP, pH 7.4) and incubated at 25° C. for 150 minutes, and then the radioactivity was determined. The antagonism against the nociceptin-elicited G protein activation was shown by the 50% inhibition concentration (IC50 value) of the test compound against GTPγ[^35S] binding.
For orientation: GTPγS resists hydrolysis and so accumulates on activated G proteins.

T1 sequence (P41146 whole entry): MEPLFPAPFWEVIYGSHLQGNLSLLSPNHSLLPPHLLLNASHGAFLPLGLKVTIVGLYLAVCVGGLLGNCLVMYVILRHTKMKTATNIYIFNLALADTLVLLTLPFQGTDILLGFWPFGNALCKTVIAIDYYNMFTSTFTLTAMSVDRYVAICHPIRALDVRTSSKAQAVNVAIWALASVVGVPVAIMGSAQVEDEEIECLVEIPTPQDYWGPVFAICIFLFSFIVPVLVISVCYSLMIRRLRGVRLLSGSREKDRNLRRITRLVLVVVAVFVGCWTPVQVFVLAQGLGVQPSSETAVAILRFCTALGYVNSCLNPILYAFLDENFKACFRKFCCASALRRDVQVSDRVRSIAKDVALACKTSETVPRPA

As a reminder, the IC50 is the concentration at which inhibition is half-maximal. In the case of `Cc1c(CN[C@H]2CC[C@@H](F)C2)n[nH]c1-c1cc(F)cc(F)c1` [Example 8, 5-(3,5-Difluorophenyl)-3-[(1S,3R)-3-fluorocyclopentylamino]methyl-4-methyl-1H-pyrazole], the IC50 on nociceptin receptor ORL1 [1] and on nociceptin receptor ORL1 [2] was 7.5 nM each time.
As for `CCc1c(CN[C@H]2CC[C@@H](F)CC2)nc(C)n1-c1cc(F)cc(F)c1` [Example 38, 1-(3,5-Difluorophenyl)-4-(cis-4-fluorocyclohexylamino)methyl-5-ethyl-2-methyl-1H-imidazole], the IC50 is 6.8 nM at nociceptin receptor ORL1 [1] and 6 nM on nociceptin receptor ORL1 [2].
Taken in the same sequence, the figures for `COCc1c(CN[C@H]2CC[C@@H](F)C2)n[nH]c1-c1cc(F)cc(F)c1` [Example 19, 5-(3,5-Difluorophenyl)-3-[(1S,3R)-3-fluorocyclopentylamino]methyl-4-methoxymethyl-1H-pyrazole] were 0.62 nM and 0.47 nM.
In the same order, the values of `Cc1ncc(-c2c(C)c(CN[C@H]3CC[C@@H](F)C3)nn2C(C)C)cc1F` [Example 2, 3-[(1S,3R)-3-fluorocyclopentylamino]methyl-5-(5-fluoro-6-methylpyridin-3-yl)-1-isopropyl-4-methyl-1H-pyrazole] are 0.92 nM and 0.61 nM.
With `COCc1c(CN[C@H]2CC[C@@H](OC)CC2)n[nH]c1-c1cc(F)cc(F)c1` [Example 34, 5-(3,5-Difluorophenyl)-3-(cis-4-methoxycyclohexylamino)methyl-4-methoxymethyl-1H-pyrazole], the IC50 on nociceptin receptor ORL1 [1] turned out to be 1.1 nM; at nociceptin receptor ORL1 [2], 0.6 nM.
In the same order, the values of `Cc1c(CN[C@H]2CC[C@@H](F)C2)nn(CCC#N)c1-c1cc(F)cc(F)c1` [Example 13, 1-(2-Cyanoethyl)-5-(3,5-difluorophenyl)-3-[(1S,3R)-3-fluorocyclopentylamino]methyl-4-methyl-1H-pyrazole] are 8.2 nM and 4.6 nM.
